Literature values in patent publication US20120142631A1, “MEDICINAL ANTIDIAPER RASH CREAM INCORPORATING A BIOPOLYMER AND A PROCESS TO MAKE IT” (APEX LABORATORIES PRIVATE LIMITED, priority 2009, published 2012).
Where two headings read alike, the source gives them in different places.

Row | Solubility (acetone) | Solubility (ethanol) | Structure (SMILES) | Solubility / miscibility (ethanol (95%)) | Solubility / miscibility (water) | Solubility (chloroform) | Solubility (ether)
1 | readily soluble | readily soluble | CCCCCCCCCCCCC[N+](C)(C)Cc1ccccc1.[Cl-] [Benzalkonium chloride, benzyl-dimethyl-tridecyl-azanium chloride] | miscible | miscible |  | 
2 |  |  | CCCCCCCCCCCCCC[N+](C)(C)C.[Br-] [Cetrimide, tetradecyltrimethylammonium bromide] | freely soluble | freely soluble | freely soluble | practically insoluble
